In PubChem BioAssay AID248 (DTP/NCI, 2004):
“And” between values parts separate entries of the source, which are not always exact repeats. Identical values can stand only once. Inconclusive results and toxic doses are left out. No stated cut-off is given here; in the data, active means T/C of 150% or more; inactive means T/C below 125%.

Test system: L1210 leukemia ip in BDF1 mice, survival T/C
Assay: NCI In Vivo Anticancer Drug Screen. Data for tumor model L1210 Leukemia (intraperitoneal) in B6D2F1 (BDF1) mice
Details: endpoint: mean survival time, higher = longer survival
Method in brief: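 In this screen, tumor-bearing mice given compound are compared to those given vehicle, and their survival values are reported as a treated-to-control quotient.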

[1] = dose: 100.0 mg/kg/injection, schedule: Q01DX009 (ip), vehicle: saline with Tween-80
[2] = dose: 100.0 mg/kg/injection, schedule: Q04DX003 (ip), vehicle: saline
[3] = dose: 200.0 mg/kg/injection, schedule: Q01DX009 (ip), vehicle: saline with Tween-80
[4] = dose: 200.0 mg/kg/injection, schedule: Q04DX003 (ip), vehicle: saline
[5] = dose: 400.0 mg/kg/injection, schedule: Q04DX003 (ip), vehicle: saline
[6] = dose: 12.5 mg/kg/injection, schedule: Q01DX009 (ip), vehicle: saline with Tween-80
[7] = dose: 12.5 mg/kg/injection, schedule: Q04DX003 (ip), vehicle: saline
[8] = dose: 100.0 mg/kg/injection, schedule: Q01DX001 (ip), vehicle: saline
[9] = dose: 200.0 mg/kg/injection, schedule: Q01DX001 (ip), vehicle: saline
[10] = dose: 25.0 mg/kg/injection, schedule: Q04DX003 (ip), vehicle: saline
[11] = dose: 6.25 mg/kg/injection, schedule: Q01DX009 (ip), vehicle: saline
[12] = dose: 12.5 mg/kg/injection, schedule: Q01DX009 (ip), vehicle: saline
[13] = dose: 25.0 mg/kg/injection, schedule: Q01DX009 (ip), vehicle: saline

Measured: T/C

Cn1c(=O)c2c(ncn2CCO)n(C)c1=O (tested in a mixture with another compound)
inactive: [1] 89 % of control | [2] 103 % of control | [3] 94 % of control | [4] 97 % of control | dose: 400.0 mg/kg/injection, schedule: Q01DX009 (ip), vehicle: saline with Tween-80 87 % of control | [5] 108 % of control

CCCCN1C(=O)C2CCc3ccncc3C2C1=O (stereo not given)
inactive: [2] 103 % of control | [4] 97 % of control | [5] 103 % of control

O=C(O)CCC(=O)Oc1ccccc1
inactive: dose: 100.0 mg/kg/injection, schedule: Q04DX003 (ip), vehicle: other 92 % of control | dose: 200.0 mg/kg/injection, schedule: Q04DX003 (ip), vehicle: other 106 % of control

Nc1nc(N)c2cc(NCc3ccccc3Cl)ccc2n1
inactive: dose: 3.12 mg/kg/injection, schedule: Q01DX009 (ip), vehicle: saline with Tween-80 111 % of control | dose: 6.25 mg/kg/injection, schedule: Q01DX009 (ip), vehicle: saline with Tween-80 103 % of control | dose: 6.25 mg/kg/injection, schedule: Q04DX003 (ip), vehicle: saline 94 % of control | [6] 95 % of control | [7] 102 % of control | dose: 25.0 mg/kg/injection, schedule: Q01DX001 (ip), vehicle: acetone 100 % of control

CC(C)=NOC(N)=O
inactive: dose: 50.0 mg/kg/injection, schedule: Q01DX Z (ip), vehicle: water 108 % of control | dose: 100.0 mg/kg/injection, schedule: Q01DX Z (ip), vehicle: water 100 % of control | dose: 200.0 mg/kg/injection, schedule: Q01DX Z (ip), vehicle: water 100 % of control | dose: 400.0 mg/kg/injection, schedule: Q01DX Z (ip), vehicle: water 100 % of control

COC1=CCC2=C(C1)CC(C)O2 (stereo not given)
inactive: dose: 100.0 mg/kg/injection, schedule: Q04DX003 (ip), vehicle: acetone 93 % of control | dose: 200.0 mg/kg/injection, schedule: Q04DX003 (ip), vehicle: acetone 102 % of control | dose: 400.0 mg/kg/injection, schedule: Q04DX003 (ip), vehicle: acetone 93 % of control

C[N+](C)=C(Cl)Cl
inactive: [8] 97 % of control | [9] 97 % of control | dose: 400.0 mg/kg/injection, schedule: Q01DX001 (ip), vehicle: saline 95 % of control

COc1ccc(C(O)C(C)N)cc1 (stereo not given)
inactive: dose: 75.0 mg/kg/injection, schedule: Q01DX001 (ip), vehicle: saline 96 % of control | dose: 150.0 mg/kg/injection, schedule: Q01DX001 (ip), vehicle: saline 96 % of control

CCC1C(=O)OCc2c1ccn(C)c2=O (stereo not given)
inactive: dose: 25.0 mg/kg/injection, schedule: Q01DX001 (ip), vehicle: saline 114 % of control | [10] 95 % of control | dose: 50.0 mg/kg/injection, schedule: Q01DX001 (ip), vehicle: saline 104 % of control | dose: 50.0 mg/kg/injection, schedule: Q04DX003 (ip), vehicle: saline 95 % of control | [8] 103 % of control | [2] 101 % of control | [9] 106 % of control | [4] 101 % of control

CN(C)NCCN1CCN(CCCN2c3ccccc3Sc3ccc(C(F)(F)F)cc32)CC1
inactive: [11] 116 % of control | [12] 89 % of control | [7] 101 % of control | [13] 107 % of control | [10] 104 % of control

O=[N+]([O-])c1ccc(O)c(CN(Cc2ccccc2)Cc2c(O)ccc3ccccc23)c1
inactive: dose: 100.0 mg/kg/injection, schedule: Q01DX001 (ip), vehicle: carboxymethylcellulose (CMC) 98 % of control | dose: 200.0 mg/kg/injection, schedule: Q01DX001 (ip), vehicle: carboxymethylcellulose (CMC) 93 % of control | dose: 400.0 mg/kg/injection, schedule: Q01DX001 (ip), vehicle: carboxymethylcellulose (CMC) 96 % of control

COc1ccc2c3c(c4cc(OC)c(OC)cc4c2c1)C[C@H]1CCCCN1C3
inactive: dose: 0.06 mg/kg/injection, schedule: Q01DX Z (ip), vehicle: carboxymethylcellulose (CMC) 103 % of control | dose: 0.12 mg/kg/injection, schedule: Q01DX Z (ip), vehicle: carboxymethylcellulose (CMC) 108 % of control | dose: 0.25 mg/kg/injection, schedule: Q01DX Z (ip), vehicle: carboxymethylcellulose (CMC) 105 % of control | dose: 0.25 mg/kg/injection, schedule: Q01DX Z (ip), vehicle: other 116 % of control | dose: 0.5 mg/kg/injection, schedule: Q01DX Z (ip), vehicle: carboxymethylcellulose (CMC) 114 % of control and 124 % of control | dose: 0.5 mg/kg/injection, schedule: Q01DX Z (ip), vehicle: other 123 % of control | dose: 0.5 mg/kg/injection, schedule: Q01DX Z (ip), vehicle: saline 115 % of control | dose: 1.0 mg/kg/injection, schedule: Q01DX001 (ip), vehicle: saline 105 % of control | dose: 1.0 mg/kg/injection, schedule: Q01DX Z (ip), vehicle: carboxymethylcellulose (CMC) 122 % of control | dose: 1.0 mg/kg/injection, schedule: Q01DX Z (ip), vehicle: saline 115 % of control | dose: 2.0 mg/kg/injection, schedule: Q01DX001 (ip), vehicle: saline 105 % of control | dose: 2.0 mg/kg/injection, schedule: Q01DX Z (ip), vehicle: other 88 % of control | dose: 4.0 mg/kg/injection, schedule: Q01DX001 (ip), vehicle: saline 111 % of control

CC(=O)OC12CC[N+]3(C)CCCCC3C1=Nc1ccccc12 (stereo not given)
inactive: [11] 98 % of control | dose: 10.0 mg/kg/injection, schedule: Q01DX001 (ip), vehicle: carboxymethylcellulose (CMC) 102 % of control | [12] 102 % of control | dose: 20.0 mg/kg/injection, schedule: Q01DX001 (ip), vehicle: carboxymethylcellulose (CMC) 105 % of control | [13] 102 % of control | [10] 103 % of control | dose: 40.0 mg/kg/injection, schedule: Q01DX001 (ip), vehicle: carboxymethylcellulose (CMC) 100 % of control | dose: 80.0 mg/kg/injection, schedule: Q01DX001 (ip), vehicle: carboxymethylcellulose (CMC) 102 % of control

CC(C)(C)[CH2][Sn]([Br])([Br])[CH2]C(C)(C)C
inactive: dose: 9.38 mg/kg/injection, schedule: Q01DX001 (ip), vehicle: other 98 % of control

CC(=O)OCc1c(C)[nH]c2ccc(N(C)C)cc2c1=O
inactive: [1] 102 % of control | [3] 112 % of control

CCNC(Cc1ccccc1)c1ccco1 (stereo not given)
inactive: dose: 50.0 mg/kg/injection, schedule: Q01DX009 (ip), vehicle: Klucel (hydroxypropylcellulose) (HPC) 109 % of control | dose: 100.0 mg/kg/injection, schedule: Q01DX009 (ip), vehicle: Klucel (hydroxypropylcellulose) (HPC) 104 % of control

O=C1C=CC(=O)N1c1ccccc1[N+](=O)[O-]
inactive: dose: 1.5 mg/kg/injection, schedule: Q01DX009 (ip), vehicle: Klucel (hydroxypropylcellulose) (HPC) 97 % of control | dose: 3.0 mg/kg/injection, schedule: Q01DX009 (ip), vehicle: Klucel (hydroxypropylcellulose) (HPC) 103 % of control | dose: 6.0 mg/kg/injection, schedule: Q01DX009 (ip), vehicle: Klucel (hydroxypropylcellulose) (HPC) 94 % of control

CCN(CC)Cc1cc(Nc2cc(C)nc(Nc3ccc(Cl)c(Cl)c3)n2)ccc1OC
inactive: [6] 98 % of control | dose: 12.5 mg/kg/injection, schedule: Q04DX003 (ip), vehicle: saline with Tween-80 98 % of control | dose: 25.0 mg/kg/injection, schedule: Q01DX009 (ip), vehicle: saline with Tween-80 105 % of control | dose: 25.0 mg/kg/injection, schedule: Q04DX003 (ip), vehicle: saline with Tween-80 100 % of control | dose: 50.0 mg/kg/injection, schedule: Q01DX009 (ip), vehicle: saline with Tween-80 110 % of control | dose: 50.0 mg/kg/injection, schedule: Q04DX003 (ip), vehicle: saline with Tween-80 101 % of control

Cc1c2cnccc2c(C)c2c1c1ccccc1n2C(C)C
inactive: dose: 37.5 mg/kg/injection, schedule: Q04DX003 (ip), vehicle: saline 100 % of control | dose: 62.5 mg/kg/injection, schedule: Q01DX009 (ip), vehicle: saline with Tween-80 110 % of control | dose: 75.0 mg/kg/injection, schedule: Q04DX003 (ip), vehicle: saline 101 % of control | dose: 150.0 mg/kg/injection, schedule: Q04DX003 (ip), vehicle: saline 104 % of control | dose: 300.0 mg/kg/injection, schedule: Q04DX003 (ip), vehicle: saline 124 % of control
